Experimental findings from patent publication US20240254118A1, “PRMT5 INHIBITORS AND USES THEREOF” (Gilead Sciences, Inc., priority 2022, published 2024) are described below.

The assay concerns HCT116 MTAP-deleted cells. Kind of assay: Cell viability assay (CellTiter-Glo, 7 days), HCT116 MTAP-deleted. To be noted: Homo sapiens, HCT-116, 168 h.
Turning to `CN(C(=O)C1CC1)N(Cc1ccc(-c2ccn(C(F)F)n2)cc1F)C(=O)c1ccc2nc(N)c3cnn(C)c3c2c1` [Example 312, 4-amino-N′-(cyclopropanecarbonyl)-N-(4-(1-(difluoromethyl)-1H-pyrazol-3-yl)-2-fluorobenzyl)-N′,1-dimethyl-1H-pyrazolo[4,3-c]quinoline-8-carbohydrazide], the CC50 was less than 0.1 µM.
The result for `COc1c(CN(C(=O)c2ccc3nc(N)c4cnn(C)c4c3c2)N(C)C(=O)C2CC2)ccc(Cl)c1F` [Example 313, 4-amino-N-(4-chloro-3-fluoro-2-methoxybenzyl)-N′-(cyclopropanecarbonyl)-N′,1-dimethyl-1H-pyrazolo[4,3-c]quinoline-8-carbohydrazide] reads less than 0.1 µM.
Under `CN(C(=O)C1CC1)N(Cc1cc(F)c(-c2cnn(C(F)F)c2)cc1F)C(=O)c1ccc2nc(N)c3cnn(C)c3c2c1` [Example 314, 4-amino-N′-(cyclopropanecarbonyl)-N-(4-(1-(difluoromethyl)-1H-pyrazol-4-yl)-2,5-difluorobenzyl)-N′,1-dimethyl-1H-pyrazolo[4,3-c]quinoline-8-carbohydrazide] stands less than 0.1 µM; under `COCc1cc(C(F)(F)F)ccc1CN(C(=O)c1ccc2nc(N)c3cnn(C)c3c2c1)N(C)C(=O)C1CC1` [Example 316, 4-amino-N′-(cyclopropanecarbonyl)-N-(2-(methoxymethyl)-4-(trifluoromethyl)benzyl)-N′,1-dimethyl-1H-pyrazolo[4,3-c]quinoline-8-carbohydrazide], less than 0.1 µM.
As to `CN(C(=O)C1CC1)N(Cc1ccc(OC(F)F)cc1F)C(=O)c1ccc2nc(N)c3cnn(C)c3c2c1` [Example 317, 4-amino-N′-(cyclopropanecarbonyl)-N-(4-(difluoromethoxy)-2-fluorobenzyl)-N′,1-dimethyl-1H-pyrazolo[4,3-c]quinoline-8-carbohydrazide], the CC50 is less than 0.1 µM.
Under `Cn1ncc2c(N)nc3ccc(C(=O)N(Cc4ccc(C(F)(F)F)cn4)N4CC5(CC5)COC4=O)cc3c21` [Example 319, 4-amino-1-methyl-N-(6-oxo-5-oxa-7-azaspiro[2.5]octan-7-yl)-N-((5-(trifluoromethyl)pyridin-2-yl)methyl)-1H-pyrazolo[4,3-c]quinoline-8-carboxamide] stands less than 0.1 µM; under `Cn1ncc2c(N)nc3cc(F)c(C(=O)N(Cc4ccc(C(F)(F)F)cn4)N4CC5(CC5)COC4=O)cc3c21` [Example 320, 4-amino-7-fluoro-1-methyl-N-(6-oxo-5-oxa-7-azaspiro[2.5]octan-7-yl)-N-((5-(trifluoromethyl)pyridin-2-yl)methyl)-1H-pyrazolo[4,3-c]quinoline-8-carboxamide], less than 0.1 µM.
The result for `CC(=O)N(C)N(Cc1ccc(-c2ccn(C(F)(F)F)n2)nc1F)C(=O)c1ccc2nc(N)c3cnn(C)c3c2c1` [Example 346, N′-acetyl-4-amino-N-((2-fluoro-6-(1-(trifluoromethyl)-1H-pyrazol-3-yl)pyridin-3-yl)methyl)-N′,1-dimethyl-1H-pyrazolo[4,3-c]quinoline-8-carbohydrazide] reads less than 0.1 µM; that for `CC(=O)N(C)N(Cc1ccc(-c2cnn(C(F)(F)F)c2)nc1F)C(=O)c1ccc2nc(N)c3cnn(C)c3c2c1` [Example 347, N′-acetyl-4-amino-N-((2-fluoro-6-(1-(trifluoromethyl)-1H-pyrazol-4-yl)pyridin-3-yl)methyl)-N′,1-dimethyl-1H-pyrazolo[4,3-c]quinoline-8-carbohydrazide], less than 0.1 µM; that for `CC(=O)N(C)N(Cc1ccc(-c2cnn(C(F)F)c2)nc1F)C(=O)c1ccc2nc(N)c3cnn(C)c3c2c1` [Example 348, N′-acetyl-4-amino-N-((6-(1-(difluoromethyl)-1H-pyrazol-4-yl)-2-fluoropyridin-3-yl)methyl)-N′,1-dimethyl-1H-pyrazolo[4,3-c]quinoline-8-carbohydrazide], less than 0.1 µM.
Under `CN(C(=O)C1CC1)N(Cc1ccc(-c2cnn(C(F)F)c2)cn1)C(=O)c1ccc2nc(N)c3cnn(C)c3c2c1` [Example 353, 4-amino-N′-(cyclopropanecarbonyl)-N-((5-(1-(difluoromethyl)-1H-pyrazol-4-yl)pyridin-2-yl)methyl)-N′,1-dimethyl-1H-pyrazolo[4,3-c]quinoline-8-carbohydrazide] stands less than 0.1 µM; under `CN(C(=O)C1CC1)N(Cc1ccc(Br)cn1)C(=O)c1ccc2nc(N)c3cnn(C)c3c2c1` [Example 354, 4-amino-N-((5-bromopyridin-2-yl)methyl)-N′-(cyclopropanecarbonyl)-N′,1-dimethyl-1H-pyrazolo[4,3-c]quinoline-8-carbohydrazide], less than 0.1 µM.
Regarding `CN(C(=O)C1CC1)N(Cc1ccc(-c2cncs2)cn1)C(=O)c1ccc2nc(N)c3cnn(C)c3c2c1` [Example 355, 4-amino-N′-(cyclopropanecarbonyl)-N′,1-dimethyl-N-((5-(thiazol-5-yl)pyridin-2-yl)methyl)-1H-pyrazolo[4,3-c]quinoline-8-carbohydrazide], the CC50 is less than 0.1 µM.
Under `CN(C(=O)C1CC1)N(Cc1ccc(-c2cnn(C)c2)cn1)C(=O)c1ccc2nc(N)c3cnn(C)c3c2c1` [Example 356, 4-amino-N′-(cyclopropanecarbonyl)-N′,1-dimethyl-N-((5-(1-methyl-1H-pyrazol-4-yl)pyridin-2-yl)methyl)-1H-pyrazolo[4,3-c]quinoline-8-carbohydrazide] stands 0.1 to 1 µM.
`CN(C(=O)C1CC1)N(Cc1ccc(C2CC2)cn1)C(=O)c1ccc2nc(N)c3cnn(C)c3c2c1` [Example 357, 4-amino-N′-(cyclopropanecarbonyl)-N-((5-cyclopropylpyridin-2-yl)methyl)-N′,1-dimethyl-1H-pyrazolo[4,3-c]quinoline-8-carbohydrazide] gave a CC50 of less than 0.1 µM.
`CN(C(=O)C1CC1(F)F)N(Cc1ccc(C(F)(F)F)cn1)C(=O)c1ccc2nc(N)c3cnn(C)c3c2c1` (stereo not shown) [Example 358, 4-amino-N′-(2,2-difluorocyclopropane-1-carbonyl)-N′,1-dimethyl-N-((5-(trifluoromethyl)pyridin-2-yl)methyl)-1H-pyrazolo[4,3-c]quinoline-8-carbohydrazide] came in with a CC50 of less than 0.1 µM.
The compound `CC(=O)N(C)N(Cc1c(F)cc(Cl)cc1F)C(=O)c1ccc2nc(N)c3cnn(C)c3c2c1` [Example 367, N′-acetyl-4-amino-N-(4-chloro-2,6-difluorobenzyl)-N′,1-dimethyl-1H-pyrazolo[4,3-c]quinoline-8-carbohydrazide] came in with a CC50 of less than 0.1 µM.
Under `CC(=O)N(C)N(Cc1cc(F)c(C(F)(F)F)cc1F)C(=O)c1ccc2nc(N)c3cnn(C)c3c2c1` [Example 368, N′-acetyl-4-amino-N-(2,5-difluoro-4-(trifluoromethyl)benzyl)-N′, 1-dimethyl-1H-pyrazolo[4,3-c]quinoline-8-carbohydrazide] stands less than 0.1 µM; under `CN(C(=O)C1CC1)N(Cc1ccc(-c2ccc(C(F)(F)F)s2)cn1)C(=O)c1ccc2nc(N)c3cnn(C)c3c2c1` [Example 369, 4-amino-N′-(cyclopropanecarbonyl)-N′,1-dimethyl-N-((5-(5-(trifluoromethyl)thiophen-2-yl)pyridin-2-yl)methyl)-1H-pyrazolo[4,3-c]quinoline-8-carbohydrazide], less than 0.1 µM.
